What all share (test): relative viability (nuclei count vs DMSO), 5 days (fraction); higher = more cells survive
Compound in the experiment “Salubrinal + Vorinostat”: O=C(/C=C/c1ccccc1)NC(NC(=S)Nc1cccc2cccnc12)C(Cl)(Cl)Cl [Salubrinal] + O=C(CCCCCCC(=O)Nc1ccccc1)NO [Vorinostat] (partner 1 µM)
The gist of the method: (§1)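 Lung cancer cell lines were pin-tool dosed in 1536-well plates on the day after seeding, with either a lone drug or a fixed anchor-drug dose plus five library-drug doses (not always all listed) in √10 steps. Nuclei were counted on 4× images after 5 days. Relative viability is the ratio of treated-well to vehicle-well nuclei counts, with each value a median of duplicate plates.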

Compound in experiment [1]: Cc1ccc2nc(NCCN)c3ncc(C)n3c2c1 + N=C(N)NC(=N)NCCc1ccccc1 [Phenformin] (partner 250 µM)
In a few lines: as §1

Compound in experiment [2]: Cc1ccc2nc(NCCN)c3ncc(C)n3c2c1 + CC(=O)Nc1cccc(-n2c(=O)n(C3CC3)c(=O)c3c(Nc4ccc(I)cc4F)n(C)c(=O)c(C)c32)c1 [Trametinib] (partner 0.02 µM)
The gist of the method: as §1

Compound in experiment [3]: Cc1ccc2nc(NCCN)c3ncc(C)n3c2c1 + Cc1nc(NC(=O)N2CCC[C@H]2C(N)=O)sc1-c1ccnc(C(C)(C)C(F)(F)F)c1 [Alpelisib] (partner 2 µM)
In a few lines: as §1

For the cell line NCI-H2087, the relative viability was determined as 0.981 with Salubrinal + Vorinostat (first compound 0.08 µM); 0.368 in the experiment with Salubrinal + Vorinostat (first compound 0.253 µM); 0.67 with Salubrinal + Vorinostat (first compound 0.8 µM); 0.676 in the experiment with Salubrinal + Vorinostat (first compound 2.53 µM); 0.762 in the experiment with Salubrinal + Vorinostat (first compound 8 µM); 0.464 in experiment [1] (first compound 0.04 µM). The relative viability in experiment [1] (first compound 0.1265 µM) was determined as 0.491; in experiment [1] (first compound 0.4 µM), 0.423; in experiment [1] (first compound 1.265 µM) it was 0.482; in experiment [1] (first compound 4 µM), 0.477; in experiment [2] (first compound 0.04 µM), 0.18; in experiment [2] (first compound 0.1265 µM), 0.208. Further, the relative viability turned out to be 0.194 in experiment [2] (first compound 0.4 µM); 0.16 in experiment [2] (first compound 1.265 µM); 0.204 in experiment [2] (first compound 4 µM); 1.07 in experiment [3] (first compound 0.04 µM); 1.15 in experiment [3] (first compound 0.1265 µM); 0.998 in experiment [3] (first compound 0.4 µM). Besides, the relative viability in experiment [3] (first compound 1.265 µM) turned out to be 0.963; in experiment [3] (first compound 4 µM) it was 0.998.
On to NCI-H2126, for which the relative viability was determined as 0.87 with Salubrinal + Vorinostat (first compound 0.08 µM); 0.72 in the experiment with Salubrinal + Vorinostat (first compound 0.253 µM); 0.888 with Salubrinal + Vorinostat (first compound 0.8 µM); 0.763 with Salubrinal + Vorinostat (first compound 2.53 µM); 0.719 with Salubrinal + Vorinostat (first compound 8 µM); 0.528 in experiment [1] (first compound 0.04 µM). Further, the relative viability was determined as 0.544 in experiment [1] (first compound 0.1265 µM); 0.516 in experiment [1] (first compound 0.4 µM); 0.535 in experiment [1] (first compound 1.265 µM); 0.506 in experiment [1] (first compound 4 µM); 0.547 in experiment [2] (first compound 0.04 µM); 0.563 in experiment [2] (first compound 0.1265 µM). In addition, the relative viability in experiment [2] (first compound 0.4 µM) worked out at 0.522; in experiment [2] (first compound 1.265 µM), 0.607; in experiment [2] (first compound 4 µM) it was 0.552; in experiment [3] (first compound 0.04 µM), 0.738; in experiment [3] (first compound 0.1265 µM) it was 0.73; in experiment [3] (first compound 0.4 µM), 0.77. The relative viability turned out to be 0.719 in experiment [3] (first compound 1.265 µM) and 0.782 in experiment [3] (first compound 4 µM).
With NCI-H2170, the relative viability in the experiment with Salubrinal + Vorinostat (first compound 0.08 µM) stood at 0.861; with Salubrinal + Vorinostat (first compound 0.253 µM) it was 0.742; with Salubrinal + Vorinostat (first compound 0.8 µM), 0.923; in the experiment with Salubrinal + Vorinostat (first compound 2.53 µM), 0.956; in the experiment with Salubrinal + Vorinostat (first compound 8 µM), 0.638; in experiment [1] (first compound 0.04 µM) it was 0.402. The relative viability in experiment [1] (first compound 0.1265 µM) was 0.408; in experiment [1] (first compound 0.4 µM), 0.435; in experiment [1] (first compound 1.265 µM) it was 0.424; in experiment [1] (first compound 4 µM), 0.446; in experiment [2] (first compound 0.04 µM) it was 0.892; in experiment [2] (first compound 0.1265 µM), 0.915. The relative viability came out at 0.871 in experiment [2] (first compound 0.4 µM); 0.83 in experiment [2] (first compound 1.265 µM); 0.921 in experiment [2] (first compound 4 µM); 0.844 in experiment [3] (first compound 0.04 µM); 0.805 in experiment [3] (first compound 0.1265 µM); 0.801 in experiment [3] (first compound 0.4 µM). For the same cell line, the results for the relative viability in experiment [3] (first compound 1.265 µM) and in experiment [3] (first compound 4 µM) were 0.805 and 0.67, respectively.
On to NCI-H2228, for which the relative viability came out at 0.99 with Salubrinal + Vorinostat (first compound 0.08 µM); 0.652 with Salubrinal + Vorinostat (first compound 0.8 µM); 0.659 in the experiment with Salubrinal + Vorinostat (first compound 2.53 µM); 0.642 with Salubrinal + Vorinostat (first compound 8 µM); 0.29 in experiment [1] (first compound 0.04 µM); 0.525 in experiment [1] (first compound 0.1265 µM). The relative viability in experiment [1] (first compound 0.4 µM) was determined as 0.452; in experiment [1] (first compound 1.265 µM) it was 0.284; in experiment [1] (first compound 4 µM), 0.244; in experiment [2] (first compound 0.04 µM), 0.549; in experiment [2] (first compound 0.1265 µM) it was 0.501; in experiment [2] (first compound 0.4 µM) it was 0.522. For the same cell line, the relative viability in experiment [2] (first compound 1.265 µM) worked out at 0.519; in experiment [2] (first compound 4 µM), 0.424; in experiment [3] (first compound 0.04 µM) it was 0.626; in experiment [3] (first compound 0.1265 µM), 0.639; in experiment [3] (first compound 0.4 µM) it was 0.974; in experiment [3] (first compound 1.265 µM) it was 0.832. Further, in experiment [3] (first compound 4 µM), the relative viability was 0.613.
With NCI-H2347, the relative viability with Salubrinal + Vorinostat (first compound 0.08 µM) turned out to be 0.558; with Salubrinal + Vorinostat (first compound 0.253 µM), 0.514; with Salubrinal + Vorinostat (first compound 0.8 µM), 0.608; with Salubrinal + Vorinostat (first compound 2.53 µM) it was 0.686; with Salubrinal + Vorinostat (first compound 8 µM) it was 0.639; in experiment [1] (first compound 0.04 µM), 0.521. In addition, the relative viability amounted to 0.55 in experiment [1] (first compound 0.1265 µM); 0.513 in experiment [1] (first compound 0.4 µM); 0.345 in experiment [1] (first compound 1.265 µM); 0.417 in experiment [1] (first compound 4 µM); 0.269 in experiment [2] (first compound 0.04 µM); 0.289 in experiment [2] (first compound 0.1265 µM). Moreover, the relative viability came to 0.264 in experiment [2] (first compound 0.4 µM); 0.29 in experiment [2] (first compound 1.265 µM); 0.3 in experiment [2] (first compound 4 µM); 1.06 in experiment [3] (first compound 0.04 µM); 0.978 in experiment [3] (first compound 0.1265 µM); 1.06 in experiment [3] (first compound 0.4 µM). In addition, the results for the relative viability in experiment [3] (first compound 1.265 µM) and in experiment [3] (first compound 4 µM) were 0.91 and 1.01, respectively.
NCI-H2405: the relative viability in the experiment with Salubrinal + Vorinostat (first compound 0.08 µM) stood at 0.998; with Salubrinal + Vorinostat (first compound 0.253 µM), 1.06; with Salubrinal + Vorinostat (first compound 0.8 µM) it was 1.22; with Salubrinal + Vorinostat (first compound 2.53 µM) it was 1.04; with Salubrinal + Vorinostat (first compound 8 µM) it was 0.99; in experiment [1] (first compound 0.04 µM), 0.417. Further, the relative viability in experiment [1] (first compound 0.1265 µM) came to 0.385; in experiment [1] (first compound 0.4 µM) it was 0.451; in experiment [1] (first compound 1.265 µM), 0.371; in experiment [1] (first compound 4 µM) it was 0.375; in experiment [2] (first compound 0.04 µM) it was 0.648; in experiment [2] (first compound 0.1265 µM), 0.629. Moreover, the relative viability in experiment [2] (first compound 0.4 µM) stood at 0.674; in experiment [2] (first compound 1.265 µM) it was 0.589; in experiment [2] (first compound 4 µM) it was 0.581; in experiment [3] (first compound 0.04 µM), 0.835; in experiment [3] (first compound 0.1265 µM), 0.698; in experiment [3] (first compound 0.4 µM) it was 0.801. The relative viability was determined as 0.728 in experiment [3] (first compound 1.265 µM) and 0.696 in experiment [3] (first compound 4 µM).
On to NCI-H3122, for which the relative viability with Salubrinal + Vorinostat (first compound 0.08 µM) was determined as 1.16; with Salubrinal + Vorinostat (first compound 0.253 µM), 1; in the experiment with Salubrinal + Vorinostat (first compound 0.8 µM) it was 0.989; in the experiment with Salubrinal + Vorinostat (first compound 2.53 µM) it was 1.05; in the experiment with Salubrinal + Vorinostat (first compound 8 µM), 1.09; in experiment [1] (first compound 0.04 µM) it was 0.411. Further, the relative viability in experiment [1] (first compound 0.1265 µM) is 0.379; in experiment [1] (first compound 0.4 µM), 0.399; in experiment [1] (first compound 1.265 µM), 0.36; in experiment [1] (first compound 4 µM), 0.288; in experiment [2] (first compound 0.04 µM), 0.21; in experiment [2] (first compound 0.1265 µM), 0.26. Further, the relative viability was determined as 0.248 in experiment [2] (first compound 0.4 µM); 0.259 in experiment [2] (first compound 1.265 µM); 0.238 in experiment [2] (first compound 4 µM); 0.88 in experiment [3] (first compound 0.04 µM); 0.942 in experiment [3] (first compound 0.1265 µM); 0.812 in experiment [3] (first compound 0.4 µM). Further, the relative viability in experiment [3] (first compound 1.265 µM) worked out at 0.779; in experiment [3] (first compound 4 µM), 0.855.

Source of the values: the supplement of paper PMC10307832.
